Results reported in publication PMC6934184, “Selective DNA-PKcs inhibition extends the therapeutic index of localized radiotherapy and chemotherapy” (The Journal of Clinical Investigation, 2019).

Biological target: T1, IKBKB (IKK beta) (Homo sapiens, UniProt O14920)
T1 construct: purchased Thermo Fisher Scientific (Life Technologies) SelectScreen
Assay: SelectScreen Z'LYTE
Format: biochemical
Summary of the method: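 Percent values come from Thermo SelectScreen profiling of NU5455, combining activity and binding assays. CSF1R was run in Z'LYTE format at Km app ATP, and CAMK1 in Adapta format with ATP listed at 10.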

T1 sequence (O14920 whole entry): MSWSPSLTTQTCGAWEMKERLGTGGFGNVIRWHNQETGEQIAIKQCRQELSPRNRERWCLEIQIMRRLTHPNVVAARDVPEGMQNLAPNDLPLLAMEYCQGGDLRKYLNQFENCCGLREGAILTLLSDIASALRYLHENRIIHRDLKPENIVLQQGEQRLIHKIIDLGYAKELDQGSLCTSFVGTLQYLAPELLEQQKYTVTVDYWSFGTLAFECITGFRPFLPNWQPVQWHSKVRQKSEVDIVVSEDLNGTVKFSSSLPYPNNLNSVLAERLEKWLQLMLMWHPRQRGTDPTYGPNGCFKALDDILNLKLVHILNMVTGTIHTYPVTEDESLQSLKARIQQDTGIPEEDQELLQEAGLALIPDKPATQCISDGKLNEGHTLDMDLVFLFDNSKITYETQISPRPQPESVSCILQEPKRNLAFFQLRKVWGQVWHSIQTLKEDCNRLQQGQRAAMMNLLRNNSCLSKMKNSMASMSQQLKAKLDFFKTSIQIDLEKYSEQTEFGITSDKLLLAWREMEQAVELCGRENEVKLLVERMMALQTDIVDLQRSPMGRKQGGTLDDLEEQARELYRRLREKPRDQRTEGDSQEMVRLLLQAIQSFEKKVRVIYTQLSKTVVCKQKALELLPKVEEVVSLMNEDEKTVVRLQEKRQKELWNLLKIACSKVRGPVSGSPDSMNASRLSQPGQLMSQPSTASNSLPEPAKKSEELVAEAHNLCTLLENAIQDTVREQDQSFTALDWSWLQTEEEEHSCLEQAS

Compound: CN(C(=O)CN1CCOCC1)c1ccc2sc3c(-c4cccc5c(=O)cc(N6CC7CCC(C6)O7)oc45)cccc3c2c1 [NU5455]
- inhibition at 1 µM: -0.6%
